For 19 compounds, EC50 and Activity results are on record in ChEMBL document CHEMBL4052790, “Identification of a Novel TRPM8 Agonist from Nutmeg: A Promising Cooling Compound” (ACS Med Chem Lett, 2017).

Active and inactive are the calls of the source. No cut-off for these calls is given here.

Experiment [1] concerns the target T1, Transient receptor potential cation channel subfamily M member 8 (Homo sapiens, UniProt Q7Z2W7). Put plainly: Agonist activity at full length recombinant human TRPM8 expressed in HEK293 cells assessed as increase in intracellular Ca2+ level pre-incubated for 5 mins by Fluo4-AM dye-based fluorescence assay. It is filed as cell-based.
Target sequence in this assay (Q7Z2W7 whole entry): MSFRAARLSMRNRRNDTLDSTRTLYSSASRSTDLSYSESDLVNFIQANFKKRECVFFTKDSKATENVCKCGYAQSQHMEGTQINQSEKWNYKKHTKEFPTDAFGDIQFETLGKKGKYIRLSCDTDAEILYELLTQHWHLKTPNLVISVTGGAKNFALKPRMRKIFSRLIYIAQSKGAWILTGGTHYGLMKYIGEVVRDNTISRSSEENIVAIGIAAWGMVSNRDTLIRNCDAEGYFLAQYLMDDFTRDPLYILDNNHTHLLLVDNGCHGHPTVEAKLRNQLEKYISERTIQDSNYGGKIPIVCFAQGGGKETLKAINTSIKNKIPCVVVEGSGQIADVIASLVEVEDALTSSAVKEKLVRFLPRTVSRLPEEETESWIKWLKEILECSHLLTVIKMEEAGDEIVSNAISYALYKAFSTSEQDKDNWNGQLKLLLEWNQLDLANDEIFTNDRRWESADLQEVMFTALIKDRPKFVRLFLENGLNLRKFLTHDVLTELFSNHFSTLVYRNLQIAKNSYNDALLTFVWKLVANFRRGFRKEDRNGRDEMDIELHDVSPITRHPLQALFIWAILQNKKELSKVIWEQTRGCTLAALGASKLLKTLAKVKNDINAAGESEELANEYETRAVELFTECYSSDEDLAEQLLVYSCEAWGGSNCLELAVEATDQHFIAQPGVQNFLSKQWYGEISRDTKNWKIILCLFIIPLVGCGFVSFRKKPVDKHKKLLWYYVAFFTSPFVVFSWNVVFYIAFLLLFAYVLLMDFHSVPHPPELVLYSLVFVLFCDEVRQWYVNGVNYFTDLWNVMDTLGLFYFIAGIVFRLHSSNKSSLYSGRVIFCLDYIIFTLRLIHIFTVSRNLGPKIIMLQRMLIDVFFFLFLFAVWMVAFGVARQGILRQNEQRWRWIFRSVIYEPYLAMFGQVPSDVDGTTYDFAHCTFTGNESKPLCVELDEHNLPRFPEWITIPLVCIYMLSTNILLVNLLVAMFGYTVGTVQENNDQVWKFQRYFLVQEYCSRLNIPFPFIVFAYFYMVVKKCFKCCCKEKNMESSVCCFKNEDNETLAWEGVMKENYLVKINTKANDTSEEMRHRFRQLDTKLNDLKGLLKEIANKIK
In experiment [2] the target is Transient receptor potential cation channel subfamily A member 1 (Homo sapiens, UniProt O75762). The experiment can be described thus: Agonist activity at recombinant human TRPA1 expressed in HEK293 cells assessed as increase in intracellular Ca2+ level pre-incubated for 5 mins by Fluo4-AM dye-based fluorescence assay. The experiment is classed as cell-based.
Transient receptor potential cation channel subfamily A member 1, sequence (O75762 whole entry): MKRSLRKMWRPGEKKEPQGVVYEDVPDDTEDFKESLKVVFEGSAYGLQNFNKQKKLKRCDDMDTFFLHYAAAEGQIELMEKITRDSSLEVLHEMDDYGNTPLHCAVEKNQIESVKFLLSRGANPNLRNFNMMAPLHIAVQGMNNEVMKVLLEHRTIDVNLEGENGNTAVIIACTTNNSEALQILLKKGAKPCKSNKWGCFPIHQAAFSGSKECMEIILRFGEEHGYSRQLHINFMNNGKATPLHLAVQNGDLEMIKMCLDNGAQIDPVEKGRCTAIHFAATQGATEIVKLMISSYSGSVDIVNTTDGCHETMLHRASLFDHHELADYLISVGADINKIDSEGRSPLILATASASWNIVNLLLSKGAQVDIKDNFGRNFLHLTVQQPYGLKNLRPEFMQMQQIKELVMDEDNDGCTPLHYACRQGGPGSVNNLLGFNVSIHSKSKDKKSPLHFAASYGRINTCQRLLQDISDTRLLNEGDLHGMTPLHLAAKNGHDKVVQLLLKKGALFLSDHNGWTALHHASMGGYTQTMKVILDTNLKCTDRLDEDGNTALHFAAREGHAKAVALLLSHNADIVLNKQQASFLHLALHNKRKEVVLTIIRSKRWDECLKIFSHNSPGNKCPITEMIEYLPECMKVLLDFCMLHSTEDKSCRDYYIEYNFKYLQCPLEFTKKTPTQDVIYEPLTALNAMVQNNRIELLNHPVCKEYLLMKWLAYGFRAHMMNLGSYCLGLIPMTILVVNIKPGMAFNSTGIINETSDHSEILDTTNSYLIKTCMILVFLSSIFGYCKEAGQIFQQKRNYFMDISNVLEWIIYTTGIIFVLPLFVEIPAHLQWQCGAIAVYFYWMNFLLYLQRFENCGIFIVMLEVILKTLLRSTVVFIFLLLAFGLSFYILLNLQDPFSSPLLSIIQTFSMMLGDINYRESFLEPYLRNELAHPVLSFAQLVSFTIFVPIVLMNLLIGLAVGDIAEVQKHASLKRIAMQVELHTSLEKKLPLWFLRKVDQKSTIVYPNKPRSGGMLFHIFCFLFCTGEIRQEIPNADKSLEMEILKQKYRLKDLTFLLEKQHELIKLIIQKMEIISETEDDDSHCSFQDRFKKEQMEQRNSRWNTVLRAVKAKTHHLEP
Experiment [3] is filed under the species Homo sapiens. Put plainly: Induction of cooling effect in human at 0.02% measured immediately after washing by simple mouth washing method. It is filed as functional.
Experiment [4] concerns the target Transient receptor potential cation channel subfamily V member 1 (Homo sapiens) (UniProt Q8NER1). Put plainly: Agonist activity at recombinant human TRPV1 expressed in HEK293 cells assessed as increase in intracellular Ca2+ level pre-incubated for 5 mins by Fluo4-AM dye-based fluorescence assay. It is filed as cell-based.
For experiment [5], the target named is T2, Transient receptor potential cation channel subfamily V member 3 (Homo sapiens) (UniProt Q8NET8).
T2 sequence (whole entry): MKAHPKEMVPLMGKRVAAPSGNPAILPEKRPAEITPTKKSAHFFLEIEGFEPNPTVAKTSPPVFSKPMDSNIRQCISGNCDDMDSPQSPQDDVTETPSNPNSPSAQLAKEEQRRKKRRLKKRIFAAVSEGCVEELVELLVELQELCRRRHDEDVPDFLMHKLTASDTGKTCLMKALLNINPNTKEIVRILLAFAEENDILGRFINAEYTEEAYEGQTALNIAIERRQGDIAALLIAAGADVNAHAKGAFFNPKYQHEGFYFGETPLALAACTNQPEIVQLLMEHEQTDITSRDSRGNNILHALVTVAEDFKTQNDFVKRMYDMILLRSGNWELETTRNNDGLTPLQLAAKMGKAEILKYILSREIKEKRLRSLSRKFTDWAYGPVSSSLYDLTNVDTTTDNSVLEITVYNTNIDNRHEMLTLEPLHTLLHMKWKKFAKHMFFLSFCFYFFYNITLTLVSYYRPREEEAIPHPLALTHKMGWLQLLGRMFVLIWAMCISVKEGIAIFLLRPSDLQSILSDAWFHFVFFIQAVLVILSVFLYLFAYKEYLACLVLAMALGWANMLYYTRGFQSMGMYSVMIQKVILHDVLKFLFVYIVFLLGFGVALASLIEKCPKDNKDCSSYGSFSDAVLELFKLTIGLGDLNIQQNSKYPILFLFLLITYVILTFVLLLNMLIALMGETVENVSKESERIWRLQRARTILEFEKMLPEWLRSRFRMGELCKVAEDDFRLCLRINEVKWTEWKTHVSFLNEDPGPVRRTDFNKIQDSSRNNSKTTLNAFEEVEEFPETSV
Put plainly: Agonist activity at recombinant human TRPV3 expressed in HEK293 cells assessed as increase in intracellular Ca2+ level pre-incubated for 5 mins by Fluo4-AM dye-based fluorescence assay. The experiment is classed as cell-based.

For experiment [6], the species on record is Homo sapiens. Put plainly: Induction of cooling effect in human at 0.02% measured after few mins after washing by simple mouth washing method. The experiment is classed as functional.
The target of experiment [7] is T1, Transient receptor potential cation channel subfamily M member 8. Put plainly: Agonist activity at full length recombinant human TRPM8 expressed in HEK293 cells assessed as additive potentiation of 1 and 3 uM l-menthol-stimulated intracellular Ca2+ level at 0.03 uM by Fluo4-AM dye-based fluorescence assay. It is filed as cell-based.
Target sequence in this assay (Q7Z2W7 whole entry, looked up): as the sequence (Q7Z2W7 whole entry) above
Experiment [8] has as its system Transient receptor potential cation channel subfamily M member 8 (Homo sapiens), Q7Z2W7 [Y745H]. The experiment can be described thus: Agonist activity at full length recombinant human TRPM8 Y745H mutant expressed in HEK293 cells at 0.3 to 3 uM by Fluo4-AM dye-based fluorescence assay. The experiment is classed as cell-based.
For experiment [9], the target named is Transient receptor potential cation channel subfamily V member 4 (Homo sapiens) (UniProt Q9HBA0). Put plainly: Agonist activity at recombinant human TRPV4 expressed in HEK293 cells assessed as increase in intracellular Ca2+ level pre-incubated for 5 mins by Fluo4-AM dye-based fluorescence assay. It is filed as cell-based.
Transient receptor potential cation channel subfamily V member 4 (Homo sapiens), sequence (Q9HBA0 whole entry): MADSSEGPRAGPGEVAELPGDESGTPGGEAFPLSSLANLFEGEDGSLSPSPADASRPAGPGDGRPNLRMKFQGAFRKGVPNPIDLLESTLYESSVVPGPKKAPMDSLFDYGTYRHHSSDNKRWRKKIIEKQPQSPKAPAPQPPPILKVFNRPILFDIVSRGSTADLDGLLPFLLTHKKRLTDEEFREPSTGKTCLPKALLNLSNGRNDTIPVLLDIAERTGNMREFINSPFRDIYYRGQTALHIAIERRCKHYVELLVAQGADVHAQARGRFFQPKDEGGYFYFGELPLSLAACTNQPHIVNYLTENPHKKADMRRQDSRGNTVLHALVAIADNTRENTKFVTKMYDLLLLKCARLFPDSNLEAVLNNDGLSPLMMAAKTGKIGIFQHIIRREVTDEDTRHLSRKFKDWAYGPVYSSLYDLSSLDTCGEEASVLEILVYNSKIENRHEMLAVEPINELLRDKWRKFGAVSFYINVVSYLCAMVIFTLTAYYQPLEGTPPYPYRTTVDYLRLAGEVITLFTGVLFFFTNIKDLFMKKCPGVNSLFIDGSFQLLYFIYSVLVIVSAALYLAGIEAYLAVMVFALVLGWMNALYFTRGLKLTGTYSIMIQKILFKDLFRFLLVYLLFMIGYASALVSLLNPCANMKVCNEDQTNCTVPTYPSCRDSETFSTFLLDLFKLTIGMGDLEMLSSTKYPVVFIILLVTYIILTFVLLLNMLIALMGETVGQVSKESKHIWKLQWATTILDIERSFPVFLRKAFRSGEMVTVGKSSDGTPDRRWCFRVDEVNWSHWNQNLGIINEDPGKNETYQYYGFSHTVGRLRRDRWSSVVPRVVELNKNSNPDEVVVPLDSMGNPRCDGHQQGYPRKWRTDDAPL

In general, EC50 refers to the concentration that produces a half-maximal response.

Transient receptor potential cation channel subfamily V member 1 (Homo sapiens), sequence (Q8NER1 whole entry): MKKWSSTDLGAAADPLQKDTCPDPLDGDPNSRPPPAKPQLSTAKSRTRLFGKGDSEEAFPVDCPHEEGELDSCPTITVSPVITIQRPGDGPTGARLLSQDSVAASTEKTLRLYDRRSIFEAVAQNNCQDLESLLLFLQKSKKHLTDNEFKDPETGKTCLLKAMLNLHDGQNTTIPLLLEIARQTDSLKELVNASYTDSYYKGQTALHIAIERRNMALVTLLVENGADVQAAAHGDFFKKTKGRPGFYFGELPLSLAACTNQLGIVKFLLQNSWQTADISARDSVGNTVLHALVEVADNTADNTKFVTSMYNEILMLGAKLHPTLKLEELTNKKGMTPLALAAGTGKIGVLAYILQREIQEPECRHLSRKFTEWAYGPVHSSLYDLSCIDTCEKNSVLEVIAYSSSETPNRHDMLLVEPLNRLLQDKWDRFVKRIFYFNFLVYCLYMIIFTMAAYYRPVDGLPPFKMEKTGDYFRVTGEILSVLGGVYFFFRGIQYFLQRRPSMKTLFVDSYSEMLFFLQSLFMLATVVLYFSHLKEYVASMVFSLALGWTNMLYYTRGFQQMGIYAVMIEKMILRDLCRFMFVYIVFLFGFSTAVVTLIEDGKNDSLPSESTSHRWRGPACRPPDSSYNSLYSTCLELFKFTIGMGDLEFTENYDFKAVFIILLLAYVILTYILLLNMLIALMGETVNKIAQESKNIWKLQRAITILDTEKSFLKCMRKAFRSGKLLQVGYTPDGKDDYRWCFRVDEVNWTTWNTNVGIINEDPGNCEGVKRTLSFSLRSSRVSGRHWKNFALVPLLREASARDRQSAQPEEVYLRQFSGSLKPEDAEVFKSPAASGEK
Transient receptor potential cation channel subfamily M member 8 (Homo sapiens), Q7Z2W7 [Y745H], sequence (Q7Z2W7 whole entry Y745H): as the sequence (Q7Z2W7 whole entry) above, with Y745H counted along it

`C=CCc1cc(OC)c(O[C@@H](C)[C@H](OCC)c2ccc(O)c(OC)c2)c(OC)c1`: in experiment [1], the EC50 was 1130 nM.

Consider `CC(C)[C@@H]1CC[C@@H](C)C[C@H]1O` [LEVOMENTHOL], for which the EC50 in [2] was 96000 nM. For the same compound, in the experiment filed under Homo sapiens [3], the outcome was Active.

Turning to `C=CCc1cc(OC)c(OC(C)C(OC(C)C)c2ccc(O)c(OC)c2)c(OC)c1` (configuration not stated), in [1], the EC50 came to 82 nM.

`C=CCc1cc(OC)c(OC(C)C(OCCCCCCCCCC)c2ccc(O)c(OC)c2)c(OC)c1` (configuration not stated): the half-maximal effective concentration (EC50) in experiment [1] was 66 nM.

For `C=CCc1cc(OC)c(OC(C)C(OCCCCCC)c2ccc(O)c(OC)c2)c(OC)c1` (configuration not stated), the EC50 in [1] was 329 nM.

For the compound `C=CCc1cc(OC)c(OC(C)C(OCC(C)C)c2ccc(O)c(OC)c2)c(OC)c1` (configuration not stated), in experiment [1], the EC50 came out at 138 nM.

With `C=CCc1cc(OC)c(O[C@H](C)[C@@H](O)c2ccc(OC)c(OC)c2)c(OC)c1`, the EC50 in experiment [1] is > 10000 nM.

On to `C=CCc1cc(OC)c(OC(C)C(O[C@@H]2C[C@H](C)CC[C@H]2C(C)C)c2ccc(O)c(OC)c2)c(OC)c1` (some centres not stated), for which, in experiment [1], the 50% effective concentration (EC50) is 28 nM.

For the compound `C=CCc1cc(OC)c(O[C@H](C)[C@@H](OC(C)=O)c2ccc(O)c(OC)c2)c(OC)c1`, in experiment [1], the EC50 is > 10000 nM.

For `C=CCc1cc(OC)c(OC(C)C(OCCOCCCC)c2ccc(O)c(OC)c2)c(OC)c1` (configuration not stated), the EC50 in [1] was 153 nM.

As to `C=CCc1cc(OC)c(OC(C)C(OCC)c2ccc(O)c(OC)c2)c(OC)c1` (mixture of isomers), the result in [4], in [5] and in experiment [9] was inactive. Also, the result (in the experiment filed under Homo sapiens [6]; in [7]; in [8]) was Active. Also, the concentration giving a half-maximal response (EC50) is 332 nM in [1] and 19100 nM in experiment [2].

With `C=CCc1cc(OC)c(OC(C)C(OC2CCCCC2)c2ccc(O)c(OC)c2)c(OC)c1` (configuration not stated), the concentration for a half-maximal effect (EC50) in experiment [1] was determined as 54 nM.

Regarding `C=CCc1cc(OC)c(OC(C)C(O)c2ccc(O)c(OC)c2)c(OC)c1` (racemic), the EC50 in experiment [1] was > 10000 nM.

In the case of `C=CCc1cc(OC)c(OC(C)C(OCCCCCCCC)c2ccc(O)c(OC)c2)c(OC)c1` (configuration not stated), the concentration giving a half-maximal response (EC50) in [1] was 86 nM.

On to `C=CCc1cc(OC)c(OC(C)C(OC)c2ccc(O)c(OC)c2)c(OC)c1` (configuration not stated), for which the concentration for a half-maximal effect (EC50) in [1] amounted to 3450 nM.

Take `C=CCc1cc(OC)c(OC(C)C(O[C@H]2C[C@@H](C)CC[C@@H]2C(C)C)c2ccc(O)c(OC)c2)c(OC)c1` (some centres not stated): the EC50 in experiment [1] turned out to be 11 nM.

For the compound `C=CCc1cc(OC)c(O[C@H](C)[C@@H](OCC)c2ccc(O)c(OC)c2)c(OC)c1`, in [1], the concentration for a half-maximal effect (EC50) turned out to be 1150 nM.

With `C=CCc1cc(OC)c(O[C@H](C)[C@H](OCC)c2ccc(O)c(OC)c2)c(OC)c1`, in experiment [1], the EC50 is 583 nM.

As for `C=CCc1cc(OC)c(O[C@H](C)[C@@H](OC(C)=O)c2ccc(OC)c(OC)c2)c(OC)c1`, the concentration for a half-maximal effect (EC50) in experiment [1] was > 10000 nM.
